{"source": "paper PMC4386669", "about": "(Cell reports, 2014)", "key": {"Ewing sarcoma cell lines [1]": {"test_system": "Ewing sarcoma cell lines", "experiment": "Dose-response cytotoxicity in Ewing sarcoma cell lines", "assay_type": "cell-based"}, "ES-6 cells [2]": {"test_system": "ES-6 cells", "experiment": "Dose-response cytotoxicity in ES-6 cells", "assay_type": "cell-based", "conditions": "for Sensitivity (cytotoxicity): 144 hours"}, "SAOS2": {"test_system": "SAOS2", "experiment": "Dose-response cytotoxicity in SAOS2", "assay_type": "cell-based"}, "[3]": {"conditions": "ref Morton et al., 2005, 2000; cited from earlier work"}, "EWS cell lines": {"test_system": "EWS cell lines", "experiment": "Drug-pair cytotoxicity with response surface model"}, "[4]": {"experiment": "Plasma and tumor pharmacokinetics in mice with orthotopic xenografts", "assay_type": "in vivo, CD1-nude mice", "conditions": "for concentration at 12 h: CD1-nude, mouse, orthotopic xenograft tumor, po; for Murine equivalent dose (most appropriate dose for twice-daily oral administration in mice): from plasma AUC in mice compared with plasma PK data in patients"}, "PARP1": {"target": "PARP1 (Homo sapiens, UniProt P09874)", "sequence (P09874 whole entry)": "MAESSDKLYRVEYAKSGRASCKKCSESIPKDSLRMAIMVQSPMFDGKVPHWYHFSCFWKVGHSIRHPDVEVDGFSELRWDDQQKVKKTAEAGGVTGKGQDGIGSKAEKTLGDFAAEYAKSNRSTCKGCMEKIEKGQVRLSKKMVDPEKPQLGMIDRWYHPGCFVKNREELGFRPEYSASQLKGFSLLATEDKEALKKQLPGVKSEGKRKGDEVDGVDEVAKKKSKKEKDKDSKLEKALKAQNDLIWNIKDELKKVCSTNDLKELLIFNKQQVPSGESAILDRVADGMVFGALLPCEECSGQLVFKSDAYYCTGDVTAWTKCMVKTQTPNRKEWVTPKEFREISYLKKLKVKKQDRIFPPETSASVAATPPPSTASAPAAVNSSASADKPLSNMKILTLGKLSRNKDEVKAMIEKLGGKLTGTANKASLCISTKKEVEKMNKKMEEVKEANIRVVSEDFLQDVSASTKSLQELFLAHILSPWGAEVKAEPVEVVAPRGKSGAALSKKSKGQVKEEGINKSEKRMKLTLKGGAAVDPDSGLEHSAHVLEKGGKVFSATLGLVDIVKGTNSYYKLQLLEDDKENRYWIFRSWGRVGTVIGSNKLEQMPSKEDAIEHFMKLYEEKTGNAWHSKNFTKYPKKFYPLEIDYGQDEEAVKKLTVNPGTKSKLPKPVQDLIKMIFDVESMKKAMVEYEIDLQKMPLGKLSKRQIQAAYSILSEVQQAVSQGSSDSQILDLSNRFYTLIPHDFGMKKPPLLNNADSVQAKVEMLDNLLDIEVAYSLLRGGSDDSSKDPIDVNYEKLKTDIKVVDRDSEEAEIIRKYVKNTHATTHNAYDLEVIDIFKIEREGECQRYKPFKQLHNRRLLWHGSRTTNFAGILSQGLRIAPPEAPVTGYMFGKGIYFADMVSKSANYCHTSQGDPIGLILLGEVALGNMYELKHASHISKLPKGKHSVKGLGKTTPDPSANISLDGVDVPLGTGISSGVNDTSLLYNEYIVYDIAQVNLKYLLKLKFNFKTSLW", "conditions": "10 micromolar PARPi + 0.01% MMS"}, "[5]": {"conditions": "TMZ to 10 mg/kg in mice; BMN-673 to 0.1 mg/kg (of the MED)"}, "ES-8 EWS cells": {"test_system": "ES-8 EWS cells", "experiment": "Single-cell alkali gel electrophoresis", "assay_type": "cell-based", "conditions": "after 12 hours of exposure to the PARPi"}, "Ewing sarcoma cell lines [6]": {"test_system": "Ewing sarcoma cell lines", "conditions": "ref Brenner et al., 2012, Garnett et al.; cited from earlier work"}, "ES-6 cells [7]": {"test_system": "ES-6 cells", "conditions": "72 hours, ref Garnett et al., 2012; cited from earlier work"}, "ES-6 cells [8]": {"test_system": "ES-6 cells", "conditions": "later timepoints, ref Garnett et al., 2012; cited from earlier work"}, "[9]": {"conditions": "translocation-positive EWS cell lines, RSM"}, "[10]": {"conditions": "EW-8, ES-8, and ES-1 cells, 72 hours of exposure"}}, "note": "pEC50: −log10 of the molar value. Where two headings read alike, the source gives them in different places."}
{"smiles": "CCc1c2c(nc3ccc(O)cc13)-c1cc3c(c(=O)n1C2)COC(=O)[C@]3(O)CC", "note": "[SN-38]", "values": [{"measurement": "pEC50", "setting": "Ewing sarcoma cell lines [1]; 144 hours, all EWS cell lines tested excluding ES-6", "value": "> 8.00"}, {"measurement": "Potency compared to other EWS cell lines", "setting": "ES-6 cells [2]", "value": "significantly lower potency"}, {"measurement": "pEC50", "setting": "SAOS2", "value": "> 7.00"}, {"measurement": "Cmax and AUC of SN-38 in mouse plasma versus human plasma", "setting": "[3]", "value": "slightly higher"}, {"measurement": "Concentration at which PARPi is significantly potentiated", "setting": "EWS cell lines; [9]", "value": "1 to 10", "unit": "nM"}]}
{"smiles": "C[C@]1(c2nc3c(C(N)=O)cccc3[nH]2)CCCN1", "note": "[veliparib]", "values": [{"measurement": "Sensitivity (cytotoxicity)", "setting": "Ewing sarcoma cell lines [1]; all EWS cell lines except ES-6, 144 hours", "value": "marginal"}, {"measurement": "Sensitivity (cytotoxicity)", "setting": "ES-6 cells [2]", "value": "resistant"}, {"measurement": "concentration at 12 h", "setting": "[4]", "value": "≥ 50", "unit": "nM"}, {"measurement": "Murine equivalent dose (most appropriate dose for twice-daily oral administration in mice)", "setting": "[4]", "value": 12.5, "unit": "mg/kg"}, {"measurement": "PARP trapping potential (rank order)", "setting": "PARP1", "value": "BMN-673 > olaparib > veliparib"}]}
{"smiles": "Cn1nnc2c(C(N)=O)ncn2c1=O", "note": "[TMZ, temozolomide]", "values": [{"measurement": "pEC50", "setting": "Ewing sarcoma cell lines [1]; 144 h", "value": "< 4.00"}, {"measurement": "Dose reduction needed to make the BMN-673 + TMZ combination tolerable", "setting": "[5]", "value": 70, "unit": "%"}, {"measurement": "Fold higher concentration of TMZ required for the same level of potentiation as IRN", "setting": "EWS cell lines; potentiation of PARPi-mediated killing of EWS cells", "value": "≥ 1,000 fold"}, {"measurement": "Concentration required for the same level of PARPi potentiation", "setting": "EWS cell lines; [9]", "value": "10 to 100", "unit": "µM"}]}
{"smiles": "O=C(c1cc(Cc2n[nH]c(=O)c3ccccc23)ccc1F)N1CCN(C(=O)C2CC2)CC1", "note": "[olaparib]", "values": [{"measurement": "Sensitivity (cytotoxicity)", "setting": "Ewing sarcoma cell lines [1]; [10]", "value": "sensitive"}, {"measurement": "Potency compared to other EWS cell lines", "setting": "ES-6 cells [2]", "value": "significantly lower potency"}, {"measurement": "Basal level of DNA damage (comet tail moment)", "setting": "ES-8 EWS cells; 10 μM", "value": "elevated"}, {"measurement": "concentration at 12 h", "setting": "[4]", "value": "≥ 90", "unit": "nM"}, {"measurement": "Murine equivalent dose (most appropriate dose for twice-daily oral administration in mice)", "setting": "[4]", "value": 50, "unit": "mg/kg"}, {"measurement": "Sensitivity of EWS cell lines", "setting": "Ewing sarcoma cell lines [6]", "value": "sensitive"}, {"measurement": "Sensitivity (cytotoxicity)", "setting": "ES-6 cells [7]", "value": "resistant"}, {"measurement": "Sensitivity in colony assays", "setting": "ES-6 cells [8]", "value": "some sensitivity"}]}
{"smiles": "Cn1ncnc1[C@H]1c2n[nH]c(=O)c3cc(F)cc(c23)N[C@@H]1c1ccc(F)cc1", "note": "[BMN-673]", "values": [{"measurement": "Sensitivity (cytotoxicity)", "setting": "Ewing sarcoma cell lines [1]; [10]", "value": "sensitive"}, {"measurement": "Sensitivity (cytotoxicity)", "setting": "ES-6 cells [2]", "value": "resistant"}, {"measurement": "Basal level of DNA damage (comet tail moment)", "setting": "ES-8 EWS cells; 1 or 10 μM", "value": "elevated"}, {"measurement": "concentration at 12 h", "setting": "[4]", "value": "≥ 15", "unit": "nM"}, {"measurement": "Murine equivalent dose (most appropriate dose for twice-daily oral administration in mice)", "setting": "[4]", "value": 0.125, "unit": "mg/kg"}]}
